Source: BigSolDB 2.1

Compound: CCCC[n+]1csc2ccccc21.F[P-](F)(F)(F)(F)F
- solubility (mole fraction) (in furfural, 273.3 K): 0.155
- solubility (mole fraction) (in furfural, 281.45 K): 0.185
- solubility (mole fraction) (in furfural, 288.25 K): 0.205
- solubility (mole fraction) (in furfural, 298.35 K): 0.246
- solubility (mole fraction) (in furfural, 302.93 K): 0.263
- solubility (mole fraction) (in furfural, 311 K): 0.3
- solubility (mole fraction) (in furfural, 317.62 K): 0.333
- solubility (mole fraction) (in furfural, 324.5 K): 0.364
- solubility (mole fraction) (in furfural, 331.25 K): 0.393
- solubility (mole fraction) (in water, 278.15 K): 6.76e-05
- solubility (mole fraction) (in water, 283.2 K): 8.72e-05
- solubility (mole fraction) (in water, 288.1 K): 0.000113
- solubility (mole fraction) (in water, 293.05 K): 0.000139
- solubility (mole fraction) (in water, 298.15 K): 0.000168
- solubility (mole fraction) (in water, 302.95 K): 0.000204
- solubility (mole fraction) (in water, 308.55 K): 0.000237
- solubility (mole fraction) (in water, 313.15 K): 0.000297
- solubility (mole fraction) (in water, 318.1 K): 0.000355
- solubility (mole fraction) (in water, 323 K): 0.000405
- solubility (mole fraction) (in water, 327.95 K): 0.000478
- solubility (mole fraction) (in water, 333.1 K): 0.0006
- solubility (mole fraction) (in water, 338.05 K): 0.000721
- solubility (mole fraction) (in water, 343.1 K): 0.000839
- solubility (mole fraction) (in water, 348 K): 0.001
- solubility (mole fraction) (in water, 353.15 K): 0.00116
- solubility (mole fraction) (in water, 357.9 K): 0.00142
- solubility (mole fraction) (in water, 363 K): 0.00175
- solubility (mole fraction) (in water, 367.9 K): 0.00198

Compound: CCCCCCCC[n+]1csc2ccccc21.F[P-](F)(F)(F)(F)F
- solubility (mole fraction) (in furfural, 271.1 K): 0.33
- solubility (mole fraction) (in furfural, 274.97 K): 0.35
- solubility (mole fraction) (in furfural, 278.47 K): 0.38
- solubility (mole fraction) (in furfural, 281.46 K): 0.396
- solubility (mole fraction) (in furfural, 285.15 K): 0.423
- solubility (mole fraction) (in furfural, 287.37 K): 0.445
- solubility (mole fraction) (in furfural, 289.48 K): 0.471
- solubility (mole fraction) (in furfural, 292.47 K): 0.5
- solubility (mole fraction) (in furfural, 296.07 K): 0.541
- solubility (mole fraction) (in furfural, 300.95 K): 0.597
- solubility (mole fraction) (in furfural, 305.47 K): 0.64
- solubility (mole fraction) (in furfural, 311.66 K): 0.711
- solubility (mole fraction) (in furfural, 314.97 K): 0.745
- solubility (mole fraction) (in furfural, 318.86 K): 0.786
- solubility (mole fraction) (in furfural, 321.52 K): 0.81
- solubility (mole fraction) (in furfural, 323.8 K): 0.829
- solubility (mole fraction) (in furfural, 327.08 K): 0.858
- solubility (mole fraction) (in water, 278.15 K): 1.79e-05
- solubility (mole fraction) (in water, 283.2 K): 2.1e-05
- solubility (mole fraction) (in water, 290.15 K): 2.61e-05
- solubility (mole fraction) (in water, 294.15 K): 3.12e-05
- solubility (mole fraction) (in water, 300.15 K): 4.01e-05
- solubility (mole fraction) (in water, 308.15 K): 5.5e-05
- solubility (mole fraction) (in water, 313.15 K): 7e-05
- solubility (mole fraction) (in water, 318.15 K): 9.11e-05
- solubility (mole fraction) (in water, 323.15 K): 0.000107
- solubility (mole fraction) (in water, 328.15 K): 0.000128
- solubility (mole fraction) (in water, 333.15 K): 0.000142
- solubility (mole fraction) (in water, 338.15 K): 0.000163
- solubility (mole fraction) (in water, 342.95 K): 0.000179
- solubility (mole fraction) (in water, 348.15 K): 0.000196
- solubility (mole fraction) (in water, 352.75 K): 0.000212
- solubility (mole fraction) (in water, 358.05 K): 0.000235
- solubility (mole fraction) (in water, 363.15 K): 0.000261
- solubility (mole fraction) (in water, 367.75 K): 0.000285

Compound: CCCCCC[n+]1csc2ccccc21.F[P-](F)(F)(F)(F)F
- solubility (mole fraction) (in furfural, 273.25 K): 0.201
- solubility (mole fraction) (in furfural, 276 K): 0.208
- solubility (mole fraction) (in furfural, 282.04 K): 0.234
- solubility (mole fraction) (in furfural, 290.19 K): 0.269
- solubility (mole fraction) (in furfural, 296.05 K): 0.297
- solubility (mole fraction) (in furfural, 301.03 K): 0.321
- solubility (mole fraction) (in furfural, 305.08 K): 0.345
- solubility (mole fraction) (in furfural, 308.23 K): 0.366
- solubility (mole fraction) (in furfural, 311.95 K): 0.385
- solubility (mole fraction) (in furfural, 315.95 K): 0.406
- solubility (mole fraction) (in furfural, 318.39 K): 0.424
- solubility (mole fraction) (in furfural, 321.62 K): 0.451
- solubility (mole fraction) (in furfural, 325.05 K): 0.479
- solubility (mole fraction) (in furfural, 327.64 K): 0.513
- solubility (mole fraction) (in furfural, 330.95 K): 0.55
- solubility (mole fraction) (in furfural, 333.5 K): 0.581
- solubility (mole fraction) (in furfural, 335.75 K): 0.616
- solubility (mole fraction) (in water, 278.15 K): 3.17e-05
- solubility (mole fraction) (in water, 282.75 K): 3.31e-05
- solubility (mole fraction) (in water, 289.15 K): 4.3e-05
- solubility (mole fraction) (in water, 294.15 K): 5.12e-05
- solubility (mole fraction) (in water, 298.15 K): 6.5e-05
- solubility (mole fraction) (in water, 303.15 K): 7.64e-05
- solubility (mole fraction) (in water, 308.15 K): 9.38e-05
- solubility (mole fraction) (in water, 313.15 K): 0.000109
- solubility (mole fraction) (in water, 318.15 K): 0.000129
- solubility (mole fraction) (in water, 323.15 K): 0.000156
- solubility (mole fraction) (in water, 328.15 K): 0.00021
- solubility (mole fraction) (in water, 330.15 K): 0.000235
- solubility (mole fraction) (in water, 333.05 K): 0.000256
- solubility (mole fraction) (in water, 338.05 K): 0.000322
- solubility (mole fraction) (in water, 342.75 K): 0.000404
- solubility (mole fraction) (in water, 347.95 K): 0.000463
- solubility (mole fraction) (in water, 352.95 K): 0.000543
- solubility (mole fraction) (in water, 357.75 K): 0.000595
- solubility (mole fraction) (in water, 362.95 K): 0.000659
- solubility (mole fraction) (in water, 367.95 K): 0.000743

Compound: CCCCC[n+]1csc2ccccc21.F[P-](F)(F)(F)(F)F
- solubility (mole fraction) (in furfural, 272.3 K): 0.085
- solubility (mole fraction) (in furfural, 277.25 K): 0.0866
- solubility (mole fraction) (in furfural, 284.65 K): 0.0981
- solubility (mole fraction) (in furfural, 290.85 K): 0.108
- solubility (mole fraction) (in furfural, 296.15 K): 0.118
- solubility (mole fraction) (in furfural, 302.85 K): 0.131
- solubility (mole fraction) (in furfural, 313.5 K): 0.151
- solubility (mole fraction) (in furfural, 321.04 K): 0.171
- solubility (mole fraction) (in furfural, 324.75 K): 0.189
- solubility (mole fraction) (in furfural, 330 K): 0.214
- solubility (mole fraction) (in furfural, 335.04 K): 0.239
- solubility (mole fraction) (in water, 278.15 K): 2.36e-05
- solubility (mole fraction) (in water, 282.35 K): 2.97e-05
- solubility (mole fraction) (in water, 290.15 K): 4.01e-05
- solubility (mole fraction) (in water, 295.15 K): 4.89e-05
- solubility (mole fraction) (in water, 302.15 K): 6.5e-05
- solubility (mole fraction) (in water, 308.15 K): 8.63e-05
- solubility (mole fraction) (in water, 313.25 K): 0.00011
- solubility (mole fraction) (in water, 318.15 K): 0.00013
- solubility (mole fraction) (in water, 323.15 K): 0.000153
- solubility (mole fraction) (in water, 328.15 K): 0.000189
- solubility (mole fraction) (in water, 330.05 K): 0.000205
- solubility (mole fraction) (in water, 333.15 K): 0.000226
- solubility (mole fraction) (in water, 338.05 K): 0.000259
- solubility (mole fraction) (in water, 342.75 K): 0.000293
- solubility (mole fraction) (in water, 348.15 K): 0.000356
- solubility (mole fraction) (in water, 353.15 K): 0.000466
- solubility (mole fraction) (in water, 357.95 K): 0.000676
- solubility (mole fraction) (in water, 363.15 K): 0.000878
- solubility (mole fraction) (in water, 368.05 K): 0.00109

Compound: CCCCCCC[n+]1csc2ccccc21.F[P-](F)(F)(F)(F)F
- solubility (mole fraction) (in furfural, 272.2 K): 0.27
- solubility (mole fraction) (in furfural, 274.55 K): 0.276
- solubility (mole fraction) (in furfural, 280.85 K): 0.297
- solubility (mole fraction) (in furfural, 284.65 K): 0.318
- solubility (mole fraction) (in furfural, 291.71 K): 0.35
- solubility (mole fraction) (in furfural, 296.7 K): 0.38
- solubility (mole fraction) (in furfural, 301.2 K): 0.41
- solubility (mole fraction) (in furfural, 304.21 K): 0.433
- solubility (mole fraction) (in furfural, 307.6 K): 0.451
- solubility (mole fraction) (in furfural, 310.41 K): 0.47
- solubility (mole fraction) (in furfural, 313.72 K): 0.487
- solubility (mole fraction) (in furfural, 315.6 K): 0.503
- solubility (mole fraction) (in furfural, 318.68 K): 0.532
- solubility (mole fraction) (in furfural, 322.88 K): 0.561
- solubility (mole fraction) (in furfural, 325.58 K): 0.582
- solubility (mole fraction) (in furfural, 327.81 K): 0.601
- solubility (mole fraction) (in furfural, 329.99 K): 0.622
- solubility (mole fraction) (in furfural, 331.87 K): 0.644
- solubility (mole fraction) (in water, 278.15 K): 2.26e-05
- solubility (mole fraction) (in water, 282.35 K): 2.91e-05
- solubility (mole fraction) (in water, 288.15 K): 3.5e-05
- solubility (mole fraction) (in water, 294.15 K): 4.2e-05
- solubility (mole fraction) (in water, 300.15 K): 5.5e-05
- solubility (mole fraction) (in water, 308.15 K): 7.07e-05
- solubility (mole fraction) (in water, 313.05 K): 8.48e-05
- solubility (mole fraction) (in water, 318.15 K): 0.000106
- solubility (mole fraction) (in water, 323.15 K): 0.000124
- solubility (mole fraction) (in water, 328.15 K): 0.000155
- solubility (mole fraction) (in water, 333.15 K): 0.000186
- solubility (mole fraction) (in water, 338.05 K): 0.00023
- solubility (mole fraction) (in water, 342.75 K): 0.000272
- solubility (mole fraction) (in water, 348.45 K): 0.000311
- solubility (mole fraction) (in water, 353.15 K): 0.000357
- solubility (mole fraction) (in water, 358.15 K): 0.00041
- solubility (mole fraction) (in water, 363.35 K): 0.000464
- solubility (mole fraction) (in water, 368.55 K): 0.000521
